# Measurements published in ChEMBL document CHEMBL3045694, “Insecticidal activity and chemical composition of volatile oils from Hyptis martiusii Benth” (2003).
# Legend:
# Type in all cases: functional
# Aedes aegypti [1] = assay: Larvicidal activity against third larval stage of Aedes aegypti assessed as mortality at 250 mg/L after 24 hr
# Aedes aegypti [2] = assay: Larvicidal activity against third larval stage of Aedes aegypti assessed as mortality at 100 mg/L after 24 hr
# Bemisia argentifolii [3] = assay: Insecticidal activity against adult Bemisia argentifolii reared on compound-treated melon leaves assessed as layed eggs at 1000 mg/L applied as spray after 72 hr
# Aedes aegypti [4] = assay: Larvicidal activity against third larval stage of Aedes aegypti assessed as mortality at 500 mg/L after 24 hr
# Aedes aegypti [5] = assay: Larvicidal activity against third larval stage of Aedes aegypti assessed as mortality at 50 mg/L after 24 hr
# Aedes aegypti [6] = assay: Larvicidal activity against third larval stage of Aedes aegypti assessed as mortality at 25 mg/L after 24 hr
# Bemisia argentifolii [7] = assay: Insecticidal activity against adult Bemisia argentifolii reared on compound-treated melon leaves assessed as mortality at 1000 mg/L applied as spray after 72 hr
smiles,measurement,setting,value
CC12CCC(CC1)C(C)(C)O2 [EUCALYPTOL],mortality at 250 µg/mL,Aedes aegypti [1],100%
same,mortality at 100 µg/mL,Aedes aegypti [2],100%
same,Activity,Bemisia argentifolii [3],9.2%
same,mortality at 500 µg/mL,Aedes aegypti [4],100%
same,mortality at 50 µg/mL,Aedes aegypti [5],53%
same,mortality at 25 µg/mL,Aedes aegypti [6],10%
same,mortality at 1000 µg/mL,Bemisia argentifolii [7],91.2%
